Measured values taken from patent US6562335B1, “NK-1 receptor antagonists for prevention of neurogenic inflammation in gene therapy” (Pfizer, Inc., priority 1995, dated 2003).

Molecular target: T1, substance P (NK-1) receptor (Rattus norvegicus, UniProt P14600)
T1 construct: from tissue; host or cells: living Fischer F344 rats; read-out in trachea and main stem bronchi
Assay: Capsaicin-induced Evans blue extravasation in airways of rats inoculated endotracheally with Ad5CMVLacZ
Type: in vivo
Conditions: Fischer F344 rats inoculated with Ad5CMVLacZ, 5 days after inoculation; pretreatment 4 mg/kg i.v., n=5; p>0.05 vs vector without pretreatment
Procedure: Pathogen-free Fischer F344 male rats (220-287 grams in weight, 12-14 weeks of age), under sodium pentobarotal anesthesia, received a localized endotracheal inoculation with 100 μL cf phosphate-buffered saline (PBS) containing 3×10^12 particles/mL of Ad5CMVLacZ, an adenovirus type 5 vector defective in the E1 and E3 regions of the viral genome and containing the LacZ transgene under the control of the CMV (cytomegalo virus) immediate early promoter. A control group of rats was inoculated with sterile PBS.
Five minutes after pretreatment, Evans blue dye (30 mg/kg i.v.) was injected into all the rats to measure the increase in vascular permeability associated with the neurogenic inflammation. Capsaicin (75 mg/kg i.v. over 2 min) was injected immediately after Evans blue to stimulate the sensory nerves in the airway mucosa. Five minutes after capsaicin, the rats were perfused through the heart with 100 mL of PBS. The trachea and main stem bronchi were removed and incubated in formamide (18 hours at 50° C.) to extract the extravasated tracer. The magnitude of the Evans blue extravasation was determined by spectrophotometric measurements of the optical density of formamide extracts.

T1 sequence (P14600 whole entry): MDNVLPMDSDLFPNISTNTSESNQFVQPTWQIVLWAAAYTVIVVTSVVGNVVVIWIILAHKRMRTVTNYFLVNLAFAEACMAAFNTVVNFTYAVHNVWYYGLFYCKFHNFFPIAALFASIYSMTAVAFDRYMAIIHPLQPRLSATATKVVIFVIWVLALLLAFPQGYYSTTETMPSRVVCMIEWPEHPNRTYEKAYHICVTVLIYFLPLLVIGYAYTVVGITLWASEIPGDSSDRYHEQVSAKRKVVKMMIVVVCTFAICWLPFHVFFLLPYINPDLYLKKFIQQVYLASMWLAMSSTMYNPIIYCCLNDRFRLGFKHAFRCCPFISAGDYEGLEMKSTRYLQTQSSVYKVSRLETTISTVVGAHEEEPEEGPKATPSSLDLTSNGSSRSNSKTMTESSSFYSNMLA

## COc1ccccc1CN[C@@H]1CCCN[C@@H]1c1ccccc1 [compound B, (2R,3R)-2-phenyl-3-[(2-methoxyphenyl)methylamino]piperidine]
  extravasation of Evans blue produced by capsaicin (trachea and main stem bronchi), mean ±SEM: 88.3 ± 5.8 ng/mg
